Data as given in patent US20230158025A1 (UNIVERSITY OF UTAH RESEARCH FOUNDATION, priority 2020, published 2023).
Read-outs that look alike come from different tables or passages of the source.

Legend:
[1] = target: recombinant human GALK1 (Homo sapiens, UniProt P51570); test: hGALK1 biochemical activity assay (Kinase-Glo Plus, ATP depletion)
Outline: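 Turnover is measured as ATP depletion by Kinase-Glo Plus luminescence after a 1 h room-temperature reaction. Compounds span 11 concentrations, 57.4 μM–0.97 nM, in final 20 mM HEPES pH 8.0 with 5 mM MgCl2. The substrate solution held 35 μM ATP; the added solution held 5 nM human or mouse GALK1 and 100 μM galactose.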

[2] = target: recombinant mouse GALK1 (Mus musculus, UniProt Q9R0N0); test: mGALK1 biochemical activity assay (Kinase-Glo Plus, ATP depletion)
Outline: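 Recombinant GALK1 (5 nM) with 100 μM galactose; GALK1 turnover read as ATP depletion by Kinase-Glo Plus luminescence. Reaction ran 1 h at room temperature before detection reagent was added.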

[3] = PAMPA permeability; conditions: for Papp: Perm. (1 × 10^−6 cm/sec)
[4] = aqueous kinetic solubility
[5] = rat microsomal stability (RLM)
[6] = Tables 2-15, 35 μM ATP, 100 μM galactose, 1 h, bracketed figure after some values (e.g. −1.2) is undefined and not reported, read-out: hGALK IC50
[7] = recombinant human GALK1, Kinase-Glo Plus ATP depletion, read-out: hGALK
[8] = Tables 2-15, 35 μM ATP, 100 μM galactose, 1 h, bracketed figure after some values is undefined and not reported, read-out: mGALK IC50
[9] = recombinant mouse GALK1, Kinase-Glo Plus ATP depletion, read-out: mGALK
[10] = recombinant human GALK1, Kinase-Glo Plus ATP depletion, bracketed figure in the cell, e.g. (−1.2), is not defined in the text shown, read-out: hGALK
[11] = recombinant mouse GALK1, Kinase-Glo Plus ATP depletion, bracketed figure in the cell, e.g. (−1.2), is not defined in the text shown, read-out: mGALK
[12] = microsomal stability half-life, minutes

Sequence of recombinant mouse GALK1 (Q9R0N0 whole entry): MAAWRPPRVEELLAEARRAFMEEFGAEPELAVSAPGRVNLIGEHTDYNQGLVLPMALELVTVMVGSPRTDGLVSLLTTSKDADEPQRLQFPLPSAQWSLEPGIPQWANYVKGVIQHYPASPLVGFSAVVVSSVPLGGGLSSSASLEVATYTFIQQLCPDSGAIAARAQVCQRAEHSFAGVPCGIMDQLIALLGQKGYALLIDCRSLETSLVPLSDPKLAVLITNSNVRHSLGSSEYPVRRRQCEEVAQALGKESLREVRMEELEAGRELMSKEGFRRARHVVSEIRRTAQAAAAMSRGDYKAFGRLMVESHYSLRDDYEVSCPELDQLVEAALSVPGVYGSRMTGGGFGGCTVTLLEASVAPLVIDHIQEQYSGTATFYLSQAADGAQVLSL
Sequence of recombinant human GALK1 (P51570 whole entry): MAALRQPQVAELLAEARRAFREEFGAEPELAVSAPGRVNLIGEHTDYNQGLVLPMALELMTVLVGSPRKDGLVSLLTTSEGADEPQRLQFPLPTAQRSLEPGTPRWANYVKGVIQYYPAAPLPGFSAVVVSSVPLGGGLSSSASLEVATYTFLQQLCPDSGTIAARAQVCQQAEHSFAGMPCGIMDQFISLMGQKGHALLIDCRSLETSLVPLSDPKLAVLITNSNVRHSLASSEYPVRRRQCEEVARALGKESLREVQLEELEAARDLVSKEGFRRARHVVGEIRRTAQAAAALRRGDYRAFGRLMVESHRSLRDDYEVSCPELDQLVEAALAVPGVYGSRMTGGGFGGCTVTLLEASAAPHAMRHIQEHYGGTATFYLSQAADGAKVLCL

Row | IC50 [1, 6] [µM] | IC50 [1, 7] [µM] | IC50 [2, 8] [µM] | IC50 [2, 9] [µM] | Papp ([3]; PAMPA) [×10⁻⁶ cm/s] | Sol. [4] [µg/mL] | Metab. Stabil. (m) ([5]; microsomal half-life) | Perm. (1 × 10^−6 cm/sec) ([3]; PAMPA) | Sol. ([4]; aqueous kinetic solubility) [µg/mL] | Metab. Stabil. (m) ([5]; microsomal stability half-life) | Perm. (1 × 10^−6 cm/sec) [3] | IC50 [1, 10] [µM] | IC50 [2, 11] [µM] | Metab. Stabil. (m) [5, 12] [m] | hGALK (μM) ([1]; recombinant human GALK1, Kinase-Glo Plus ATP depletion) | mGALK (μM) ([2]; recombinant mouse GALK1, Kinase-Glo Plus ATP depletion) | Compound
1 | 0.12 | 0.12 | 1.72 | 1.72 | < 1 | >78 | >30 | – | – | – | – | – | – | – | – | – | CC1=C(C(=O)Nc2cc(C(=O)O)ccn2)C(c2ccc(C)cc2Cl)N=C(Nc2nc3cccc(N)c3o2)N1 (racemic) [Compound 79, 2-(2-((7-aminobenzo[d]oxazol-2-yl)amino)-4-(2-chloro-4-methylphenyl)-6-methyl-1,4-dihydropyrimidine-5-carboxamido)isonicotinic acid]
2 | 1.37 | – | 12.2 | 12.2 | – | – | – | 807.7 1 × 10^−6 cm/sec | 24.2 | 15.67 | – | – | – | – | – | – | CC1=C(C(=O)NCc2cnn(C)c2)C(c2ccccc2Cl)N=C(Nc2nc3ccccc3o2)N1 (stereo not shown) [Compound 238, 2-(benzo[d]oxazol-2-ylamino)-4-(2-chlorophenyl)-6-methyl-N-((1-methyl-1H-pyrazol-4-yl)methyl)-1,4-dihydropyrimidine-5-carboxamide]
3 | – | 6.11 | – | 19.3 | – | <1 | >30 | – | – | – | <3.4 1 × 10^−6 cm/sec | – | – | – | – | – | CC1=C(C(=O)Nc2nnc(-c3cccnc3)s2)C(c2ccccc2Cl)N=C(Nc2nc3cc(Cl)ccc3o2)N1 (stereo not shown) [Compound 98]
4 | 1.09 | 4.09 | 10.9 | 10.9 | – | >87 | >30 | – | – | – | <1 1 × 10^−6 cm/sec | – | – | – | – | – | CC1=C(C(=O)Nc2cc(C(=O)O)ccn2)C(c2ccc(N3CCCC3)cc2Cl)N=C(Nc2nc3ccc(F)cc3o2)N1 (stereo not shown) [Compound 57, 2-(4-(2-chloro-4-(pyrrolidin-1-yl)phenyl)-2-((6-fluorobenzo[d]oxazol-2-yl)amino)-6-methyl-1,4-dihydropyrimidine-5-carboxamido)isonicotinic acid]
5 | – | 13.7 | – | 19.3 | – | – | – | 42.78 1 × 10^−6 cm/sec | <1 | 9.37 | – | – | – | – | – | – | CC1=C(S(C)(=O)=O)C(c2ccccc2Cl)N=C(Nc2nc3ccccc3o2)N1 (stereo not shown) [Compound 243, N-(4-(2-chlorophenyl)-6-methyl-5-(methylsulfonyl)-1,4-dihydropyrimidin-2-yl)benzo[d]oxazol-2-amine]
6 | 1.72 | 1.72 | 12.2 | 12.2 | – | >83 | >30 | – | – | – | 2.85 1 × 10^−6 cm/sec | – | – | – | – | – | CC1=C(C(=O)Nc2cc(C(=O)O)ccn2)C(c2cc(C(=O)O)ccc2Cl)N=C(Nc2nc3ccc(F)cc3o2)N1 (stereo not shown) [Compound 73, 2-(4-(5-carboxy-2-chlorophenyl)-2-((6-fluorobenzo[d]oxazol-2-yl)amino)-6-methyl-1,4-dihydropyrimidine-5-carboxamido)isonicotinic acid]
7 | – | 6.85 | 12.2 | 12.2 | – | – | – | 513.0 1 × 10^−6 cm/sec | <1 | 20 | – | – | – | – | – | – | CC1=C(C(=O)Nc2cccnc2)C(c2ccccc2Cl)N=C(Nc2nc3ccccc3o2)N1 (stereo not shown) [Compound 149, 2-(benzo[d]oxazol-2-ylamino)-N-(pyridin-3-yl)-4-(2-chlorophenyl)-6-methyl-1,4-dihydropyrimidine-5-carboxamide]
8 | – | 4.32 | – | 10.9 | – | <1 | >30 | – | – | – | 171.11 1 × 10^−6 cm/sec | – | – | – | – | – | CC1=C(C(=O)Nc2ccccn2)C(c2ccccc2Cl)N=C(Nc2nc3ccc(F)cc3o2)N1 (stereo not shown) [Compound 43, 4-(2-chlorophenyl)-2-((6-fluorobenzo[d]oxazol-2-yl)amino)-6-methyl-N-(pyridin-2-yl)-1,4-dihydropyrimidine-5-carboxamide]
9 | 10.9 | 10.9 | 19.3 | 19.3 | – | – | – | 6.2 1 × 10^−6 cm/sec | <1 | >30 | – | – | – | – | – | – | CC1=C(C(=O)Nc2nnc(-c3ccncc3)s2)C(c2ccccc2Cl)N=C(Nc2nc3ccccc3o2)N1 (stereo not shown) [Compound 187, 2-(benzo[d]oxazol-2-ylamino)-4-(2-chlorophenyl)-6-methyl-N-(5-(pyridin-4-yl)-1,3,4-thiadiazol-2-yl)-1,4-dihydropyrimidine-5-carboxamide]
10 | 3.85 | 3.85 | 4.85 | 4.85 | – | <1 | 2.66 | – | – | – | 16.91 1 × 10^−6 cm/sec | – | – | – | – | – | CC1=C(C(=O)NCc2c(C)nn(C)c2C)C(c2ccc(C)cc2Cl)N=C(Nc2nc3ccc(F)cc3o2)N1 (stereo not shown) [Compound 111, 4-(2-chloro-4-methylphenyl)-2-((6-fluorobenzo[d]oxazol-2-yl)amino)-6-methyl-N-((1,3,5-trimethyl-1H-pyrazol-4-yl)methyl)-1,4-dihydropyrimidine-5-carboxamide]
11 | 0.14 | 0.14 | 1.93 | 1.93 | < 1 | >81 | >30 | – | – | – | – | – | – | – | – | – | COc1ccc(C2N=C(Nc3nc4cccc(N)c4o3)NC(C)=C2C(=O)Nc2cc(C(=O)O)ccn2)c(Cl)c1 (racemic) [Compound 80, 2-(2-((7-aminobenzo[d]oxazol-2-yl)amino)-4-(2-chloro-4-methoxyphenyl)-6-methyl-1,4-dihydropyrimidine-5-carboxamido)isonicotinic acid]
12 | – | – | – | – | – | – | – | 83.8 1 × 10^−6 cm/sec | <1 | – | – | 12.2 | 21.7 | >30 | – | – | CC1=C(C(=O)Nc2nncs2)C(c2ccccc2C)N=C(Nc2nc3ccccc3o2)N1 (stereo not shown) [Compound 267, 2-(benzo[d]oxazol-2-ylamino)-6-methyl-N-(1,3,4-thiadiazol-2-yl)-4-(o-tolyl)-1,4-dihydropyrimidine-5-carboxamide]
13 | – | – | – | – | – | – | – | <4.9 1 × 10^−6 cm/sec | <1 | – | – | 4.85 | 6.11 | >30 | – | – | CC1=C(C(=O)Nc2nncs2)C(c2ccc(Cl)cc2Cl)N=C(Nc2nc3ccccc3o2)N1 (stereo not shown) [Compound 261, 2-(benzo[d]oxazol-2-ylamino)-4-(2,4-dichlorophenyl)-6-methyl-N-(1,3,4-thiadiazol-2-yl)-1,4-dihydropyrimidine-5-carboxamide]
14 | – | – | – | – | – | – | – | 250.4 1 × 10^−6 cm/sec | <1 | 25.55 | – | – | – | – | in- active | in- active | COC(=O)c1ccnc(NC(=O)C2=C(C)NC(Nc3nc4ccccc4o3)=N[C@@H]2c2ccccc2Cl)c1 [Compound 207, (S)-methyl 2-(2-(benzo[d]oxazol-2-ylamino)-4-(2-chlorophenyl)-6-methyl-1,4-dihydropyrimidine-5-carboxamido)isonicotinate]
15 | 2.43 | 2.43 | 7.69 | 7.69 | – | – | – | 156.0 1 × 10^−6 cm/sec | <1 | >30 | – | – | – | – | – | – | CC1=C(C(=O)Nc2cc(C(N)=O)ccn2)C(c2ccccc2Cl)N=C(Nc2nc3ccccc3o2)N1 (stereo not shown) [Compound 212, 2-(benzo[d]oxazol-2-ylamino)-N-(4-carbamoylpyridin-2-yl)-4-(2-chlorophenyl)-6-methyl-1,4-dihydropyrimidine-5-carboxamide]
